In ChEMBL document CHEMBL5604063, “ASAP - DENV-2 NS2B-NS3 protease fluorescence dose response” (2024):
“And” between values parts separate entries of the source, which are not always exact repeats. Identical values can stand only once.

Target: Genome polyprotein (dengue virus type 2, UniProt P29990)
Assay type: functional, Thailand/16681/1984

Sequence of Genome polyprotein (P29990 1346-1475 limits assumed): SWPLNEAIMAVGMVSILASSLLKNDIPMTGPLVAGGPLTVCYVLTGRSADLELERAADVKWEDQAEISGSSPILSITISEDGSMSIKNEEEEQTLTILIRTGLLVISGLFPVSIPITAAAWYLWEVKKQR
Sequence of Genome polyprotein (P29990 1476-2093 limits assumed): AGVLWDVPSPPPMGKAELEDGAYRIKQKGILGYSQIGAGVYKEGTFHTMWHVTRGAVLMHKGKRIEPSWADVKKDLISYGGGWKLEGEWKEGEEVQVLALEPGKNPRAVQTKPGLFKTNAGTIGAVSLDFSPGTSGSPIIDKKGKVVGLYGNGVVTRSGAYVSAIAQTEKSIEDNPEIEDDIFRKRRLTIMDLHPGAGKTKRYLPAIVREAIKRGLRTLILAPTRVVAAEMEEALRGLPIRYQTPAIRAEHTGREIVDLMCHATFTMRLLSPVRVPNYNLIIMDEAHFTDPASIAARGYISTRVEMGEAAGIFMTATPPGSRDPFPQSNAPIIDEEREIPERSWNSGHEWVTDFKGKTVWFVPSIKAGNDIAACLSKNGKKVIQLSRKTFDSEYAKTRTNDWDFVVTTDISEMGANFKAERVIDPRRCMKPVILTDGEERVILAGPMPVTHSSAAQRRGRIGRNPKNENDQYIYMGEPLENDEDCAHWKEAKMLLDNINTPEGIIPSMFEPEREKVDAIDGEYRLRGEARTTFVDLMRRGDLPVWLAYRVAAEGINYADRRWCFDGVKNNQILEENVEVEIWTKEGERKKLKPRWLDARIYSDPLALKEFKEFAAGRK

Structure (SMILES) | IC50
NCc1cccc(NC(=O)[C@H](NS(=O)(=O)c2cccc(Cl)c2)c2ccc(OCc3ccccc3)cc2)c1 | > 99.5 µM
O=C(O)c1cc(Cl)ccc1S(=O)(=O)NC1CCN(Cc2ccc(F)c(F)c2)CC1 | > 99.5 µM
CCCNC(=O)Cn1ccnc(N2CC[C@H](CO)C2)c1=O | > 99.5 µM
NCc1ccc(CNC(=O)c2cc(Cl)cc(NC(=O)OCc3ccccc3)c2)cc1 | > 99.5 µM
O=C(O)Cc1cc(NS(=O)(=O)c2ccc(Oc3ccccc3Cl)cc2)ccc1Cl | 96.1 µM
NCc1cccc(NC(=O)[C@H](NS(=O)(=O)C2CCCCC2)c2ccc(OCc3ccccc3)cc2)c1 | > 99.5 µM
NCc1cccc(NC(=O)C[C@@H](NC(=O)OCc2ccccc2)c2ccc3c(c2)OCO3)c1 | > 99.5 µM
O=C(O)c1cc(Cl)ccc1S(=O)(=O)N[C@H]1CCn2c(nnc2C(F)(F)F)C1 | > 99.5 µM
CCn1ccnc(N2CCC[C@H]2C(=O)O)c1=O | > 99.5 µM
O=C(O)c1cc(Cl)ccc1NS(=O)(=O)c1ccc(-c2ccccc2Cl)cc1 | 6.93 µM
O=C(O)c1cc(Cl)ccc1S(=O)(=O)NC1CCN(c2ncnc3c2CCC3)CC1 | > 99.5 µM
O=C(O)c1cc(Cl)ccc1S(=O)(=O)NC1CCN(S(=O)(=O)Cc2ccccc2)CC1 | > 99.5 µM
O=C(O)c1cc(Cl)ccc1NS(=O)(=O)c1ccc(-c2ccncc2)cc1 | > 99.5 µM
COc1ccc(NS(=O)(=O)c2ccc(Cl)cc2C(=O)O)cc1N1CCCC1=O | > 99.5 µM
O=C(O)c1cc(Cl)ccc1S(=O)(=O)Nc1ccc(F)c(N2CCNC2=O)c1 | > 99.5 µM
O=C(Cn1ccnc(N2CC[C@H](CO)C2)c1=O)Nc1ccccc1 | > 99.5 µM
NCc1cccc(NC(=O)[C@H](NC(=O)COc2ccccc2)c2ccc(OCc3ccccc3)cc2)c1 | 55.2 µM
Cn1cc(CCOc2ccc([C@@H](NC(=O)OCc3ccccc3)C(=O)Nc3cccc(CN)c3)cc2)nn1 | > 99.5 µM
COC(=O)Cc1ccccc1-c1ccc(S(=O)(=O)Nc2ccc(Cl)cc2C(=O)O)cc1 | 35.5 µM
O=C(O)c1cc(Cl)ccc1S(=O)(=O)Nc1ccc(N2CCCCC2)c(F)c1 | > 99.5 µM

Structure (SMILES) | IC50
O=C(O)c1cc(Cl)ccc1S(=O)(=O)Nc1ccc(S(=O)(=O)N2CCCCC2)cc1 | > 99.5 µM
Cc1ccc(S(=O)(=O)N2CCC(NS(=O)(=O)c3ccc(Cl)cc3C(=O)O)CC2)cc1 | > 99.5 µM
CCC1([C@H](NC(=O)OCc2ccccc2)C(=O)Nc2cccc(CN)c2)CCCCC1 | > 99.5 µM
CCOC1CC(S(=O)(=O)N[C@H](C(=O)Nc2cccc(CN)c2)c2ccc(OCc3ccccc3)cc2)C1 (some centres undefined) | > 99.5 µM
NCc1cccc(NC(=O)[C@H]2[C@@H]3CC[C@@H](C3)[C@H]2NC(=O)OCc2ccccc2)c1 | > 99.5 µM
NCc1cccc(NC(=O)[C@H](NC(=O)CCc2ccccc2)c2ccc(OCc3ccccc3)cc2)c1 | 14.5 µM and 23.3 µM and 22.9 µM
CSc1ccc([C@H](CC(=O)Nc2cccc(CN)c2)NC(=O)OCc2ccccc2)cc1 | 44.2 µM
O=C(O)c1cc(Cl)ccc1S(=O)(=O)NC1CCN(CC2CCOCC2)CC1 | > 99.5 µM
NCc1cccc(NC(=O)c2cc(NC(=O)OCc3ccccc3)cc3c2OC(F)(F)O3)c1 | > 99.5 µM
O=C(O)c1cc(Cl)c(F)cc1S(=O)(=O)Nc1ccc(Oc2ccccc2Cl)cc1 | 11.2 µM and 10.7 µM
O=C(O)c1cc(Cl)ccc1NS(=O)(=O)c1ccc(-c2cccc(F)c2F)cc1 | 8.82 µM
CN(C(=O)OCc1ccccc1)[C@H](C(=O)Nc1cccc(CN)c1)c1ccc(OCc2ccccc2)cc1 | 43.8 µM
O=C(O)c1cc(Cl)ccc1S(=O)(=O)N[C@H]1CCN(Cc2ccccc2)C2(CC2)C1 | > 99.5 µM
CS(=O)(=O)c1ccc(-c2cccc([C@H](NC(=O)OCc3ccccc3)C(=O)Nc3cccc(CN)c3)c2)cn1 | > 99.5 µM
O=C(O)c1cc(Cl)ccc1S(=O)(=O)NC1CCN(C(=O)c2ccccc2C(F)(F)F)CC1 | > 99.5 µM
NCc1ccccc1NC(=O)c1cc(Cl)cc(NC(=O)OCc2ccccc2)c1 | > 99.5 µM
COc1ccc(NS(=O)(=O)c2ccc(Cl)cc2C(=O)O)cc1S(=O)(=O)N1CCCC1 | > 99.5 µM
NCc1cccc(NC(=O)c2cc(Br)cc(NC(=O)OCc3ccccc3)c2)c1 | 54.3 µM
O=C(O)c1cc(Cl)ccc1S(=O)(=O)Nc1nn(Cc2ccccc2)cc1Cl | > 99.5 µM
